Measurements as given in patent US10526314B2, “Hydroxyalkyl-substituted heteroaryltriazole derivatives and uses thereof” (BAYER AKTIENGESELLSCHAFT, priority 2016, dated 2020).

Tests used:
human V2 receptor = target: T1, human V2 receptor (Homo sapiens, UniProt P30518); experiment: Cellular in vitro assay for determining vasopressin receptor activity (V2, CRE-luciferase); format: cell-based; settings: CHO cell line transfected with human V2 receptor; [Arg8]-vasopressin at EC50 concentration; read-out: IC50 hV2
T1 construct: expressed in transfected cells; host or cells: CHO K1 (ATCC) expressing firefly luciferase under a CRE-responsive promoter
Description: (§1) B-1. Cellular In Vitro Assay for Determining Vasopressin Receptor Activity
(§2) The identification of agonists and antagonists of the V1a and V2 vasopressin receptors from humans, rats and dogs as well as the quantification of the activity of the compounds of the invention is carried out using recombinant cell lines. These cell lines originally derive from a hamster's ovary epithelial cell (Chinese Hamster Ovary, CHO K1, ATCC: American Type Culture Collection, Manassas, Va. 20108, USA). The test cell lines constitutively express the human, rat or dog V1a or V2 receptors. In case of the Gαq-coupled V1a receptors, cells are also stably transfected with a modified form of the calcium-sensitive photoproteins aequorin (human and rat V1a) or obelin (dog V1a), which, after reconstitution with the cofactor coelenterazine, emit light when there are increases in free calcium concentrations [Rizzuto R, Simpson A W, Brini M, Pozzan T, Nature 358, 325-327 (1992); Illarionov B A, Bondar V S, Illarionova V A, Vysotski E S, Gene 153 (2), 273-274 (1995)]. The resulting vasopressin receptor cells react to stimulation of the recombinantly expressed V1a receptors by intracellular release of calcium ions, which can be quantified by the resulting photoprotein luminescence. The Gs-coupled V2 receptors are stably transfected into cell lines expressing the gene for firefly luciferase under control of a CRE-responsible promoter. Activation of V2 receptors induces the activation of the CRE-responsive promoter via cAMP increase, thereby inducing the expression of firefly luciferase. The light emitted by photoproteins of V1a cell lines as well as the light emitted by firefly luciferase of V2 cell lines corresponds to the activation or inhibition of the respective vasopressin receptor. The bioluminescence of the cell lines is detected using a suitable luminometer [Milligan G, Marshall F, Rees S, Trends in Pharmacological Sciences 17, 235-237 (1996)].
Vasopressin V2 Receptor Cell Lines:
On the day before the assay, the cells are plated out in culture medium (DMEM/F12, 2% FCS, 2 mM glutamine, 10 mM HEPES) in 384-well microtiter plates and kept in a cell incubator (96% humidity, 5% v/v CO2, 37° C.). On the day of the assay, test compounds in various concentrations and the agonist [Arg^8]-vasopressin at EC50 concentration are added together to the wells, and plates are incubated for 3 hours in a cell incubator. Upon addition of the cell lysis reagent Triton™ and the substrate luciferin, luminescence of firefly luciferase is measured in a luminometer.
(§3) Table 1A below lists individual IC50 values for the compounds of the invention (including racemic mixtures as well as separated enantiomers) that were obtained from cell lines transfected with the human V1a or V2 receptor: […]

human V1a receptor = target: T2, human V1a receptor (Homo sapiens, UniProt P37288); experiment: Cellular in vitro assay for determining vasopressin receptor activity (V1a, aequorin luminescence); format: cell-based; settings: for IC50: CHO cell line transfected with human V1a receptor, [Arg8]-vasopressin at EC50 concentration, read-out: IC50 hV1a; for ratio IC50 hV2/hV1a: selectivity ratio IC50 hV2 / IC50 hV1a
T2 construct: expressed in transfected cells; host or cells: CHO K1 (ATCC), also stably transfected with a modified aequorin
Description: as §1, §2
Vasopressin V1a Receptor Cell Lines:
On the day before the assay, the cells are plated out in culture medium (DMEM/F12, 2% FCS, 2 mM glutamine, 10 mM HEPES, 5 μg/ml coelenterazine) in 384-well microtiter plates and kept in a cell incubator (96% humidity, 5% v/v CO2, 37° C.). On the day of the assay, test compounds in various concentrations are placed for 10 minutes in the wells of the microtiter plate before the agonist [Arg^8]-vasopressin at EC50 concentration is added. The resulting light signal is measured immediately in a luminometer.
as §3

T2 sequence (P37288 whole entry): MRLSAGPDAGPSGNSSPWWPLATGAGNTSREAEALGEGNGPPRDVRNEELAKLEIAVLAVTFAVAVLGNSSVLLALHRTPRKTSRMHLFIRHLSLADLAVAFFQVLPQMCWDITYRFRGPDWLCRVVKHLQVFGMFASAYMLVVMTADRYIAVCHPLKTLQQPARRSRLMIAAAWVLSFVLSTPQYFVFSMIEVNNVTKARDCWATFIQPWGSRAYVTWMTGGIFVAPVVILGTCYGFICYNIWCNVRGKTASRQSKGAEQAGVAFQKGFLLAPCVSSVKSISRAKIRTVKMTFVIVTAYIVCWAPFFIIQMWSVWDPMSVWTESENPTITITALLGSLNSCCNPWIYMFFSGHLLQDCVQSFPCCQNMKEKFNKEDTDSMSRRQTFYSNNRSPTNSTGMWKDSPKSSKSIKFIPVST
T1 sequence (P30518 whole entry): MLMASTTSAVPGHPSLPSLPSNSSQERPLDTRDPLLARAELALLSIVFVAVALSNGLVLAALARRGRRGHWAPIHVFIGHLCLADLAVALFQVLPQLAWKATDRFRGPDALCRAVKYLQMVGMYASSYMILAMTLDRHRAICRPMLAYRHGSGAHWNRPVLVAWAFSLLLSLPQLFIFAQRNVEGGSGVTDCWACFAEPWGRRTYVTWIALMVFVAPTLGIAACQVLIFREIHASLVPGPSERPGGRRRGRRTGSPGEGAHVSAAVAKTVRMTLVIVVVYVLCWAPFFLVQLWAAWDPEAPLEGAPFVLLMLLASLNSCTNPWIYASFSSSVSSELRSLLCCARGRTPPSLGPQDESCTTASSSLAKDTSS

C[C@@H](O)c1nc(Cn2nc(-c3ccc(Cl)cc3)n(C[C@H](O)C(F)(F)F)c2=O)nn1-c1ncccc1F [Example 13, 5-(4-Chlorophenyl)-2-({1-(3-fluoropyridin-2-yl)-5-[(1R)-1-hydroxyethyl]-1H-1,2,4-triazol-3-yl}methyl)-4-[(2S)-3,3,3-trifluoro-2-hydroxypropyl]-2,4-dihydro-3H-1,2,4-triazol-3-one]
IC50 (human V2 receptor): 0.0387 µM | IC50 (human V1a receptor): 0.00605 µM | ratio IC50 hV2/hV1a (human V1a receptor): 6.4

C[C@H](O)c1nc(Cn2nc(-c3ccc(Cl)cc3)n(C[C@H](O)C(F)(F)F)c2=O)nn1-c1ccccn1 [Example 14, 5-(4-Chlorophenyl)-2-({5-[(1S)-1-hydroxyethyl]-1-(pyridin-2-yl)-1H-1,2,4-triazol-3-yl}methyl)-4-[(2S)-3,3,3-trifluoro-2-hydroxypropyl]-2,4-dihydro-3H-1,2,4-triazol-3-one]
IC50 (human V2 receptor): 0.0655 µM | IC50 (human V1a receptor): 0.00645 µM | ratio IC50 hV2/hV1a (human V1a receptor): 10.2

C[C@H](O)c1nc(Cn2nc(-c3ccc(Cl)cc3)n(C[C@H](O)C(F)(F)F)c2=O)nn1-c1ccc(Cl)cn1 [Example 15, 5-(4-Chlorophenyl)-2-({1-(5-chloropyridin-2-yl)-5-[(1S)-1-hydroxyethyl]-1H-1,2,4-triazol-3-yl}methyl)-4-[(2S)-3,3,3-trifluoro-2-hydroxypropyl]-2,4-dihydro-3H-1,2,4-triazol-3-one]
IC50 (human V2 receptor): 0.0117 µM | IC50 (human V1a receptor): 0.00825 µM | ratio IC50 hV2/hV1a (human V1a receptor): 1.4

C[C@@H](O)c1nc(Cn2nc(-c3ccc(Cl)cc3)n(C[C@H](O)C(F)(F)F)c2=O)nn1-c1ncccc1OC(F)(F)F [Example 16, 5-(4-Chlorophenyl)-2-({5[(1R)-1hydroxyethyl]-1-[3-(trifluoromethoxy)pyridin-2-yl]-1H-1,2,4-triazol-3yl}methyl)-4-[(2S)-3,3,3-trifluoro-2-hydroxypropyl]-2,4-dihydro-3H-1,2,4-triazol-3-one]
IC50 (human V2 receptor): 0.387 µM | IC50 (human V1a receptor): 0.013 µM | ratio IC50 hV2/hV1a (human V1a receptor): 29.7

C[C@H](O)c1nc(Cn2nc(-c3ccc(Cl)cc3)n(C[C@H](O)C(F)(F)F)c2=O)nn1-c1cccc(F)n1 [Example 17, 5-(4-Chlorophenyl)-2-({1-(6-fluoropyridin-2-yl)-5-[(1S)-1-hydroxyethyl]-1H-1,2,4-triazol-3-yl}methyl)-4-[(2S)-3,3,3-trifluoro-2-hydroxypropyl]-2,4-dihydro-3H-1,2,4-triazol-3-one]
IC50 (human V2 receptor): 0.0395 µM | IC50 (human V1a receptor): 0.0145 µM | ratio IC50 hV2/hV1a (human V1a receptor): 2.7

C[C@H](O)c1nc(Cn2nc(-c3ccc(Cl)cc3)n(C[C@H](O)C(F)(F)F)c2=O)nn1-c1ccncc1 [Example 18, 5-(4-Chlorophenyl)-2-({5-[(1S)-1-hydroxyethyl]-1-(pyridin-4-yl)-1H-1,2,4-triazol-3-yl}methyl)-4-[(2S)-3,3,3-trifluoro-2-hydroxypropyl]-2,4-dihydro-3H-1,2,4-triazol-3-one]
IC50 (human V2 receptor): 0.199 µM | IC50 (human V1a receptor): 0.0286 µM | ratio IC50 hV2/hV1a (human V1a receptor): 7.0

C[C@H](O)c1nc(Cn2nc(-c3ccc(Cl)cc3)n(C[C@H](O)C(F)(F)F)c2=O)nn1-c1cnccn1 [Example 19, 5-(4-Chlorophenyl)-2-({5-[(1S)-1-hydroxyethyl]-1-(pyrazin-2-yl)-1H-1,2,4-triazol-3-yl}methyl)-4-[(2S)-3,3,3-trifluoro-2-hydroxypropyl]-2,4-dihydro-3H-1,2,4-triazol-3-one]
IC50 (human V2 receptor): 0.32 µM | IC50 (human V1a receptor): 0.0295 µM | ratio IC50 hV2/hV1a (human V1a receptor): 10.8

C[C@H](O)c1nc(Cn2nc(-c3ccc(Cl)cc3)n(C[C@H](O)C(F)(F)F)c2=O)nn1-c1cccnn1 [Example 20, 5-(4-Chlorophenyl)-2-({5-[(1S)-1-hydroxyethyl]-1-(pyridazin-3-yl)-1H-1,2,4-triazol-3-yl}methyl)-4-[(25)-3,3,3-trifluoro-2-hydroxypropyl]-2,4-dihydro-3H-1,2,4-triazol-3-one]
IC50 (human V2 receptor): 0.235 µM | IC50 (human V1a receptor): 0.0476 µM | ratio IC50 hV2/hV1a (human V1a receptor): 4.9

COc1nccnc1-n1nc(Cn2nc(-c3ccc(Cl)cc3)n(C[C@H](O)C(F)(F)F)c2=O)nc1[C@H](C)O [Example 21, 5-(4-Chlorophenyl)-2-({5-[(1S)-1-hydroxyethyl]-1-(3-methoxypyrazin-2-yl)-1H-1,2,4-triazol-3-yl}methyl)-4-[(2S)-3,3,3-trifluoro-2-hydroxypropyl]-2,4-dihydro-3H-1,2,4-triazol-3-one]
IC50 (human V2 receptor): 0.046 µM | IC50 (human V1a receptor): 0.049 µM | ratio IC50 hV2/hV1a (human V1a receptor): 0.9

C[C@H](O)c1nc(Cn2nc(-c3ccc(Cl)cc3)n(C[C@H](O)C(F)(F)F)c2=O)nn1-c1nccn1C [Example 22, 5-(4-Chlorophenyl)-2-({5-[(1S)-1-hydroxyethyl]-1-(1-methyl-1H-imidazol-2-yl)-1H-1,2,4-triazol-3-yl}methyl)-4-[(2S)-3,3,3-trifluoro-2-hydroxypropyl]-2,4-dihydro-3H-1,2,4-triazol-3-one]
IC50 (human V2 receptor): 0.138 µM | IC50 (human V1a receptor): 0.0681 µM | ratio IC50 hV2/hV1a (human V1a receptor): 2.0

C[C@@H](O)c1nc(Cn2nc(-c3ccc(Cl)cc3)n(C[C@H](O)C(F)(F)F)c2=O)nn1-c1ccccn1 [Example 23, 5-(4-Chlorophenyl)-2-({5-[(1R)-1-hydroxyethyl]-1-(pyridin-2-yl)-1H-1,2,4-triazol-3-yl}methyl)-4-[(2S)-3,3,3-trifluoro-2-hydroxypropyl]-2,4-dihydro-3H-1,2,4-triazol-3-one]
IC50 (human V2 receptor): 0.103 µM | IC50 (human V1a receptor): 0.0865 µM | ratio IC50 hV2/hV1a (human V1a receptor): 1.2

C[C@H](O)c1nc(Cn2nc(-c3ccc(Cl)cc3)n(C[C@H](O)C(F)(F)F)c2=O)nn1-c1ncccc1C(F)(F)F [Example 30, 5-(4-chlorophenyl)-2-({5-[(1S)-1-hydroxyethyl]-1-[3-(trifluoromethyl)pyridin-2-yl]-1H-1,2,4-triazol-3-yl}methyl)-4-[(2S)-3,3,3-trifluoro-2-hydroxypropyl]-2,4-dihydro-3H-1,2,4-triazol-3-one]
IC50 (human V2 receptor): 0.0485 µM | IC50 (human V1a receptor): 0.0033 µM | ratio IC50 hV2/hV1a (human V1a receptor): 14.9

C[C@@H](O)c1nc(Cn2nc(-c3ccc(Cl)cc3)n(C[C@H](O)C(F)(F)F)c2=O)nn1-c1ncccc1C(F)(F)F [Example 31, 5-(4-chlorophenyl)-2-({5-[(1R)-1-hydroxyethyl]-1-[3-(trifluoromethyl)pyridin-2-yl]-1H-1,2,4-triazol-3yl}methyl)-4-[(2S)-3,3,3-trifluoro-2-hydroxypropyl]-2,4-dihydro-3H-1,2,4-triazol-3-one]
IC50 (human V2 receptor): 0.17 µM | IC50 (human V1a receptor): 0.0049 µM | ratio IC50 hV2/hV1a (human V1a receptor): 35.1
